The results in this text go back to PubChem BioAssay AID1033 (Sanford-Burnham Center for Chemical Genomics, 2008).

Active and inactive are the calls of the source. How the calls were made is not given here.

The target in this experiment is Chaperone protein DnaK (Escherichia coli (strain K12)) (UniProt P0A6Y8). In words: binders of DnaK substrate-binding domain, biophysical, NMR, chaperone (AID 1033). To be noted: Purified DnaK SBD, NMR ligand binding.
Sequence of Chaperone protein DnaK (Escherichia coli (strain K12)) (P0A6Y8 whole entry, looked up, the tested form may be a part): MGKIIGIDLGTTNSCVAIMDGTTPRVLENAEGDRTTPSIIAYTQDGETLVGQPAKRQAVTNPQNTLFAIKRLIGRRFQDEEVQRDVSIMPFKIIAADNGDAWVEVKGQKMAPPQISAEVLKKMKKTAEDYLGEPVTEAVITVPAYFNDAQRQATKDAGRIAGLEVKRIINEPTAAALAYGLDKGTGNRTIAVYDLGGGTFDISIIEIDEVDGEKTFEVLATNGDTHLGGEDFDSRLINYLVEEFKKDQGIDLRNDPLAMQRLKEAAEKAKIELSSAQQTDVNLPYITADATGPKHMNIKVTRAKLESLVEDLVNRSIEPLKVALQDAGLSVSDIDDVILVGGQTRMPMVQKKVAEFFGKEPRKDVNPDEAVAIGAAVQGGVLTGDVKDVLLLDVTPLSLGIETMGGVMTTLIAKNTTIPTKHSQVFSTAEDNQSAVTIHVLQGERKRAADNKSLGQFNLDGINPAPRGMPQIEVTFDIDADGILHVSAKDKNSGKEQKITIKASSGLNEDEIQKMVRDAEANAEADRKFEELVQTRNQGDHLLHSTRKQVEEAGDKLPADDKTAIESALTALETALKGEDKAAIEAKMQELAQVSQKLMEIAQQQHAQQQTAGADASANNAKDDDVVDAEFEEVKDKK
In general, Kd refers to the free concentration of one partner at which half of the binding sites on the other are occupied at equilibrium, for simple one-to-one binding. For the molecule `CC(=O)OCC(=O)[C@@]1(O)CCC2C3CC[C@@H]4C[C@H](O)CC[C@]4(C)C3C(=O)C[C@@]21C` (some centres undefined), the Kd was > 4 mM (inactive).

With `O=C(NC(=S)NCCO)c1ccccc1`, the Kd was > 4 mM (inactive).

Regarding `CC(=O)Nc1ccc(Oc2nc(C)cc(C)n2)cc1`, the Kd was > 4 mM (inactive).

Consider `NC(=O)C1CCCN1S(=O)(=O)c1ccc(F)cc1` (centres undefined), for which the Kd was > 4 mM (inactive).

With `CSc1ccc(C(=S)N2CCN(C)CC2)cc1`, the Kd is > 4 mM (inactive).

With `Cc1cc2c(nn1)CCc1nonc1-2`, the Kd was > 4 mM (inactive).

`S=c1[nH]ncn1-c1ccccc1`: the Kd was > 4 mM (inactive).

On to `Cc1ccc(C(=O)Nn2cnnc2)c(Cl)c1`, for which the Kd was > 4 mM (inactive).

On to `O=C1NC(=O)C(C2SC(=O)NC2=O)S1` (centres undefined), for which the Kd was > 4 mM (inactive).

On to `CN(C)S(=O)(=O)NCc1ccc2c(c1)OCO2`, for which the Kd was > 4 mM (inactive).

For `Cc1noc(C)c1C(=O)Nc1ccccn1`, the Kd was > 4 mM (inactive).

In the case of `C=C(C)C1Cc2c(ccc(C(=O)O)c2O)O1` (centres undefined), the Kd was > 4 mM (inactive).

For `CC(=O)Nc1cccc(-c2nc3ccccc3c(=O)o2)c1`, the Kd is > 4 mM (inactive).

For the molecule `O=c1[nH]c(=S)c2c(n1-c1ccccc1)CCC2`, the Kd was > 4 mM (inactive).

Consider `O=C1NC(=O)/C(=C\c2ccncc2)S1`, for which the Kd is > 4 mM (inactive).

Turning to `O=[n+]1cc(-c2ccccc2)n([O-])c2c1CCC2`, the Kd was > 4 mM (inactive).

Consider `O=c1[nH]c(=O)c2[nH]cnc2[nH]1`, for which the Kd is > 4 mM (inactive).

On to `O=C1CSC(=Nc2ccc(F)cc2)N1`, for which the Kd is > 4 mM (inactive).

Regarding `O=c1cc(O)n(-c2ccc(F)cc2)c(=S)[nH]1`, the Kd is > 4 mM (inactive).

Consider `Cc1nc2ccccc2c2c1C(=O)N(C)C2=O`, for which the Kd was > 4 mM (inactive).

Take `CC(=O)N1CC2(C)CN(C(C)=O)CC(C)(C1)C2O` (centres undefined): the Kd was > 4 mM (inactive).

Consider `c1ccc2c(c1)nnn2C1CCNCC1`, for which the Kd is > 4 mM (inactive).

Turning to `COc1ccccc1-c1nc(=S)[nH][nH]1`, the Kd was > 4 mM (inactive).

On to `O=C(Cn1cncn1)c1ccc(F)c(F)c1`, for which the Kd is > 4 mM (inactive).

Regarding `O=C(Nc1nnc(-c2ccccc2Cl)o1)c1ccco1`, the Kd is > 4 mM (inactive).

With `CC(=O)O[C@H]1C[C@@H](OC(C)=O)C(C)(C)C2C[C@@H](OC(C)=O)[C@]3(C)C([C@H](OC(C)=O)C[C@@]4(C)[C@H](c5ccoc5)OC(=O)[C@H]5O[C@]543)[C@]21C` (some centres undefined), the Kd was > 4 mM (inactive).

On to `COc1cccc(NC(=O)c2ocnc2C)c1`, for which the Kd was > 4 mM (inactive).

As for `Cc1oc(-c2ccccc2)cc1CO`, the Kd is > 4 mM (inactive).

Regarding `O=C(O)C1CSC(c2cccnc2)N1` (centres undefined), the Kd is > 4 mM (inactive).

As for `CCCn1cnc2sc(C(N)=O)c(C)c2c1=O`, the Kd was > 4 mM (inactive).

Consider `Fc1ccc(F)c(CN2CCN(c3ncccn3)CC2)c1`, for which the Kd is > 4 mM (inactive).

Take `C[C@H]1[C@H](C)CC[C@]2(C(=O)O)CC[C@]3(C)C(=CCC4[C@@]5(C)C[C@@H](O)[C@H](O)[C@@](C)(CO)C5[C@H](O)C[C@]43C)[C@H]12` (some centres undefined): the Kd is > 4 mM (inactive).

On to `CCS(=O)(=O)N1CCN(c2ccccc2F)CC1`, for which the Kd is > 4 mM (inactive).

`CS(=O)(=O)NC1CCN(Cc2ccccc2)CC1`: the Kd was > 4 mM (inactive).

Turning to `Cc1nn2c(-c3ccco3)nnc2c2ccccc12`, the Kd was > 4 mM (inactive).

Regarding `Cc1ccccc1-n1c(N)cc(=O)[nH]c1=S`, the Kd is > 4 mM (inactive).

As to `Cc1ccc(SCc2cc(=O)n3[nH]cnc3n2)cc1`, the Kd is > 4 mM (inactive).

Consider `O=C(NC(O)C(=O)c1ccccc1)c1ccco1` (centres undefined), for which the Kd was > 4 mM (inactive).

Regarding `CCCNC(=O)c1cnc2n(c1=O)CCS2`, the Kd is > 4 mM (inactive).

`CSc1ccccc1NC(=O)c1ccncc1`: the Kd is > 4 mM (inactive).

In the case of `O=S1(=O)NC(=NCc2ccco2)c2ccccc21`, the Kd is > 4 mM (inactive).

Turning to `CC(=O)CC1CCCCN1` (centres undefined), the Kd is > 4 mM (inactive).

As to `NCc1ccc(-n2cccn2)cc1`, the Kd was > 4 mM (inactive).

For `Cc1ccc(/C=C2/NC(=S)NC2=O)s1`, the Kd was > 4 mM (inactive).

For `CC1(C)Oc2ccc3ccc(=O)oc3c2CC1O` (centres undefined), the Kd was > 4 mM (inactive).

`CC(=O)Oc1c(C)c(C)c2c(c1C)CCC(C)(CCCC(C)CCCC(C)CCCC(C)C)O2` (centres undefined): the Kd is > 4 mM (inactive).

Turning to `Cc1ccc(CCNc2ccccc2)c[n+]1[O-]`, the Kd is > 4 mM (inactive).

Take `COc1cc2occc2c2oc(=O)ccc12`: the Kd was > 4 mM (inactive).

In the case of `Cc1cc2nc(SCC(=O)O)nc(C)c2cc1C`, the Kd was > 4 mM (inactive).

For the molecule `O=C(NCC1CCNCC1)c1ccncc1`, the Kd is > 4 mM (inactive).

`Cc1ccc(F)cc1NC(=O)c1ccc2c(c1)OCO2`: the Kd is > 4 mM (inactive).

As for `O=C(c1cccnc1Cl)N1CCOCC1`, the Kd was > 4 mM (inactive).

On to `NS(=O)(=O)c1ccc(NC(=O)c2ccccc2F)cc1`, for which the Kd is > 4 mM (inactive).

In the case of `CN1CCN(Cc2cccnc2)CC1`, the Kd is > 4 mM (inactive).

For the molecule `Oc1ccc2nonc2c1`, the Kd was > 4 mM (inactive).

With `COc1ccc(-c2oc3c(CC=C(C)C)c(O[C@@H]4O[C@H](CO)[C@@H](O)[C@H](O)[C@H]4O)cc(O)c3c(=O)c2O[C@@H]2O[C@@H](C)[C@H](O)[C@@H](O)[C@H]2O)cc1`, the Kd is > 4 mM (inactive).

`CCN1CCC(=NO)CC1`: the Kd was > 4 mM (inactive).

On to `O=C(Nc1ccccc1C(F)(F)F)N1CCCCCC1`, for which the Kd was > 4 mM (inactive).

Consider `CC1=NCCc2c1[nH]c1cc(O)ccc21`, for which the Kd was > 4 mM (inactive).

In the case of `O=C1NC(=S)NC(=O)C1=Cc1ccncc1`, the Kd was > 4 mM (inactive).

As to `O=C1NC(=O)C(c2ccccc2)C(=O)N1`, the Kd is > 4 mM (inactive).

With `COc1ccc2c(c1OC)C(=O)O[C@H]2[C@H]1c2cc3c(cc2CCN1C)OCO3`, the Kd was > 4 mM (inactive).

As to `COc1cc(OC)c2c(=O)c(OC)c(-c3ccc(OC)c(OC)c3)oc2c1`, the Kd was > 4 mM (inactive).

With `CC(C)CCCC(C)[C@H]1CCC2C3CC=C4C[C@@H](O)CC[C@]4(C)C3CC[C@@]21C` (some centres undefined), the Kd was > 4 mM (inactive).

Consider `O=c1[nH]c2c(c(=O)n1C1CCCCC1)CCC2`, for which the Kd is > 4 mM (inactive).

As for `Nc1ccccc1C(=O)CC(N)C(=O)O` (centres undefined), the Kd was > 4 mM (inactive).

Take `NC(=O)CSc1ccc(Br)cc1`: the Kd was > 4 mM (inactive).

For the molecule `N#Cc1ccccc1CSc1ccccn1`, the Kd is > 4 mM (inactive).

Take `CC(C)=CCCC1(C)C=Cc2c(O)c3c(c(CC=C(C)C)c2O1)OC12C(=CC4CC1C(C)(C)OC2(C/C=C(/C)C(=O)O)C4O)C3=O` (centres undefined): the Kd is > 4 mM (inactive).

On to `Cc1ccc(NC(=O)CC2NCCNC2=O)c(C)c1` (centres undefined), for which the Kd is > 4 mM (inactive).

Take `C/C=C(/C)C(=O)O[C@@H]1Cc2c(ccc3ccc(=O)oc23)OC1(C)C`: the Kd is > 4 mM (inactive).

As for `Cc1ccc2nc(SCC(=O)O)nc(C)c2c1`, the Kd is > 4 mM (inactive).

Turning to `NCC(N)C(=O)c1ccccc1` (centres undefined), the Kd is > 4 mM (inactive).

Regarding `Oc1cc2c(cc1O)C1c3ccc(O)c(O)c3OCC1(O)C2` (centres undefined), the Kd was > 4 mM (inactive).

On to `NC(=O)Nc1cccc(C(F)(F)F)c1`, for which the Kd is > 4 mM (inactive).

For the molecule `CSc1nnc2ccc(-c3cccnc3)nn12`, the Kd is > 4 mM (inactive).

As to `Cc1cc(C)cc(C(=O)n2cnnc2N)c1`, the Kd was > 4 mM (inactive).

`O=C(c1ccc2c(c1)OCO2)N1CCC2(CC1)OCCO2`: the Kd is > 4 mM (inactive).

As to `c1ccc2nc3c(nc2c1)CCc1nonc1-3`, the Kd was > 4 mM (inactive).

On to `CSc1nc(C)c(Oc2ccccc2)c(=O)n1C`, for which the Kd is > 4 mM (inactive).

In the case of `CC1(NC(=O)NCc2ccccc2)CCS(=O)(=O)C1` (centres undefined), the Kd is > 4 mM (inactive).

Turning to `O=C(O)CNC(=O)c1ccc([N+](=O)[O-])cc1`, the Kd was > 4 mM (inactive).

In the case of `O=C(c1ccncc1)N1CCN(C(=O)c2ccco2)CC1`, the Kd was > 4 mM (inactive).

For `c1ccc(-c2nsc(N3CCCNCC3)n2)cc1`, the Kd was > 4 mM (inactive).

Take `Cc1nc(-c2ccc(C(=O)O)s2)cs1`: the Kd was > 4 mM (inactive).

With `CCC(C)C(=O)OC1[C@@H]2CC3=C4CC(=O)O[C@@H](c5ccoc5)[C@]4(C)CCC3C(C)(C2=O)[C@@H](CC(=O)OC)C1(C)C` (some centres undefined), the Kd was > 4 mM (inactive).

On to `c1ccc2c(NC3=NCCS3)cccc2c1`, for which the Kd was > 4 mM (inactive).

In the case of `C=CC(C1=CC(=O)C(OC)=CC1=O)c1ccc(O)cc1` (centres undefined), the Kd is > 4 mM (inactive).

With `CC(=O)Nc1cc2c(cc1C(=O)C(C)C)OCCO2`, the Kd is > 4 mM (inactive).

As for `N#Cc1cccc(Cn2nnc(-c3ccccc3)n2)c1`, the Kd is > 4 mM (inactive).

With `CC(=O)O[C@@H]1CC2C(C)(C)[C@H](O)C=C[C@]2(C)C2CC[C@]3(C)C(=CC(=O)O[C@H]3c3ccoc3)[C@@]21C` (some centres undefined), the Kd is > 4 mM (inactive).

For the molecule `CS(=O)(=O)N/N=C/c1cccs1`, the Kd is > 4 mM (inactive).

For `CNCc1ccccc1`, the Kd was > 4 mM (inactive).

Take `CC(=O)OC1CCC2(O)CC1(C)CCC1C2CC1(C)C` (centres undefined): the Kd was > 4 mM (inactive).

In the case of `CC(CCC(=O)O)[C@H]1CCC2C3CC[C@@H]4C[C@H](O)CC[C@]4(C)C3C[C@H](O)[C@@]21C` (some centres undefined), the Kd was > 4 mM (inactive).

For `Cn1cccc1C(=S)N1CCOCC1`, the Kd was > 4 mM (inactive).

For the molecule `COc1cc2cc[n+]3cc4c(OC)c(OC)ccc4cc3c2cc1OC`, the Kd was > 4 mM (inactive).

With `CN(C)S(=O)(=O)c1ccc(C(=O)NN)cc1`, the Kd is > 4 mM (inactive).

Regarding `CN1CCC(NC(=O)C2CCCO2)CC1` (centres undefined), the Kd was > 4 mM (inactive).
